Legend:
SK-MEL-24 (Melanoma) = assay: combination Emax (second highest fraction inhibited in the dose matrix, 72 h); higher = more inhibition; extreme values may be limits of the assay
Procedure, shortened: (§1)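 Cell lines in DMEM/F12 or RPMI with 10% FBS were plated in 1536-well plates, held 24 hours at 37°C, 5% CO2, then given two-drug dose matrices for 72 hours (DMSO typically 0.2%). Viability was read by CellTiter-Glo 2.0 luminescence and scaled as inhibition from 0 (vehicle wells) to 1 (blank wells). Combination Emax is the second-highest inhibition in the matrix; Bliss excess is observed combination effect minus expected EA + EB − EA·EB, EA and EB being single-agent effects.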

[1] = test system: GRANTA-519 (B-Cell Non-Hodgkin's Lymphoma); assay: as above
Procedure, shortened: as §1

[2] = test system: SUP-HD1 (Hodgkin's Lymphoma); assay: as above
Procedure, shortened: as §1

[3] = test system: SNU-1 (Gastric Carcinoma); assay: as above
Procedure, shortened: as §1

[4] = test system: NCI-H2023 (Non-Small Cell Lung Carcinoma); assay: as above
Procedure, shortened: as §1

[5] = test system: CAL-85-1 (Breast Carcinoma); assay: as above
Procedure, shortened: as §1

[6] = test system: Daudi (Burkitt's Lymphoma); assay: as above
Procedure, shortened: as §1

[7] = test system: NTERA-2-cl-D1 (Other Solid Carcinomas); assay: as above
Procedure, shortened: as §1

[8] = test system: NCI-H1944 (Lung Adenocarcinoma); assay: as above
Procedure, shortened: as §1

[9] = test system: SBC-3 (Small Cell Lung Carcinoma); assay: as above
Procedure, shortened: as §1

HT-144 (Melanoma) = assay: as above
Procedure, shortened: as §1

[10] = test system: HT-1197 (Bladder Carcinoma); assay: as above
Procedure, shortened: as §1

[11] = test system: OVKATE (Ovarian Carcinoma); assay: Bliss excess, mean over the matrix (fraction); higher = more synergy
Procedure, shortened: as §1

[12] = test system: GRANTA-519 (B-Cell Non-Hodgkin's Lymphoma); assay: as above
Procedure, shortened: as §1

[13] = test system: SCC90 (Head and Neck Carcinoma); assay: as above
Procedure, shortened: as §1

C32 (Melanoma) = assay: as above
Procedure, shortened: as §1

[14] = test system: NCI-H1435 (Non-Small Cell Lung Carcinoma); assay: as above
Procedure, shortened: as §1

[15] = test system: SW1463 (Colorectal Carcinoma); assay: as above
Procedure, shortened: as §1

[16] = test system: NCI-H1944 (Lung Adenocarcinoma); assay: as above
Procedure, shortened: as §1

[17] = test system: JURL-MK1 (Chronic Myelogenous Leukemia); assay: as above
Procedure, shortened: as §1
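Wherever Bliss excess, mean over the matrix is given: after 72 h of two-drug dosing.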

Row | Compound | combination Emax (SK-MEL-24 (Melanoma)) | combination Emax [1] | combination Emax [2] | combination Emax [3] | combination Emax [4] | combination Emax [5] | combination Emax [6] | combination Emax [7] | combination Emax [8] | combination Emax [9] | combination Emax (HT-144 (Melanoma)) | combination Emax [10] | Bliss excess [11] | Bliss excess [12] | Bliss excess [13] | Bliss excess (C32 (Melanoma)) | Bliss excess [14] | Bliss excess [15] | Bliss excess [16] | Bliss excess [17]
1 | C[C@@H](c1ccc2nccn2c1)n1nnc2ncc(-c3cnn(C)c3)nc21 [Savolitinib] + CC1(C)CCC(CN2CCN(c3ccc(C(=O)NS(=O)(=O)c4ccc(NCC5CCOCC5)c([N+](=O)[O-])c4)c(Oc4cnc5[nH]ccc5c4)c3)CC2)=C(c2ccc(Cl)cc2)C1 [Venetoclax] (first compound max 1 µM, 7x7, partner max 1 µM) | 0.154 | 0.306 | 0.792 | 0.188 | 0.261 | 0.146 | 0.109 | 0.257 | 0.128 | 0.118 | 0.117 | 0.173 | -0.0495 | -0.0822 | -0.0192 | -0.0338 | -0.0034 | -0.0339 | -0.0328 | -0.0679
2 | Cc1cc2ncnn2cc1Nc1ncc2c(n1)n(C1CCOCC1)c(=O)n2C [AZD7648] + CCN(CCO)CCCOc1ccc2c(Nc3cc(CC(=O)Nc4cccc(F)c4)[nH]n3)ncnc2c1 [AZD2811] (first compound max 10 µM, 7x7, partner max 1 µM) | 0.373 | 0.414 | 0.434 | 0.239 | 0.534 | 0.31 | 0.508 | 0.554 | 0.415 | 0.564 | 0.327 | 0.291 | -0.0834 | 0.0287 | 0.0511 | 0.0271 | 0.0409 | -0.0035 | 0.0709 | -0.0046
3 | COc1cc2ncnc(Nc3ccc(F)c(Cl)c3)c2cc1OCCCN1CCOCC1 [Gefitinib] + CC(C)n1c(=O)n(C)c2cnc3cc(F)c(-c4ccc(OCCCN5CCCCC5)nc4)cc3c21 [AZD1390] (first compound max 10 µM, 7x7, partner max 0.3 µM) | 0.246 | 0.201 | 0.382 | 0.239 | 0.151 | 0.466 | 0.392 | 0.284 | 0.19 | 0.107 | 0.314 | 0.0774 | -0.0386 | -0.0689 | -0.0582 | -0.0368 | -0.0289 | 0.0109 | -0.0668 | -0.0586
4 | Cc1cc2ncnn2cc1Nc1ncc2c(n1)n(C1CCOCC1)c(=O)n2C [AZD7648] + C=CCn1c(=O)c2cnc(Nc3ccc(N4CCN(C)CC4)cc3)nc2n1-c1cccc(C(C)(C)O)n1 [AZD1775] (first compound max 10 µM, partner max 1 µM) | 0.495 | 0.8 | 0.785 | 0.628 | 0.703 | 0.452 | 0.809 | 0.476 | 0.583 | 0.576 | 0.611 | 0.521 | -0.001 | -0.0126 | 0.0276 | 0.0106 | 0.0816 | -0.0327 | -0.0005 | -0.0773
5 | CN(CCO)CC[C@H](CSc1ccccc1)Nc1ccc(S(=O)(=O)NC(=O)c2ccc(N3CCC([C@@H](O)c4ccccc4-c4ccc(Cl)cc4)CC3)cc2)cc1S(=O)(=O)C(F)(F)F [AZD4320] + C1CN(CCC1(C(=O)N[C@@H](CCO)C2=CC=C(C=C2)Cl)N)C3=NC=NC4=C3C=CN4 [Capivasertib] (first compound max 1 µM, 7x7, partner max 3 µM) | 0.452 | 0.812 | 0.959 | 0.412 | 0.264 | 0.264 | 0.16 | 0.409 | 0.373 | 0.246 | 0.387 | 0.321 | -0.0775 | -0.0649 | -0.0306 | -0.0564 | 0.0003 | -0.0497 | -0.0508 | -0.07
6 | Cc1cc2ncnn2cc1Nc1ncc2c(n1)n(C1CCOCC1)c(=O)n2C [AZD7648] + C[C@@H]1COCCN1C2=NC(=NC(=C2)C3(CC3)[S@](=N)(=O)C)C4=C5C=CNC5=NC=C4 [AZD6738] (first compound max 10 µM, 7x7, partner max 10 µM) | 0.509 | 0.808 | 0.751 | 0.788 | 0.796 | 0.594 | 0.826 | 0.617 | 0.77 | 0.71 | 0.753 | 0.419 | 0.0232 | -0.0479 | 0.0385 | -0.0021 | 0.0536 | 0.0087 | 0.0055 | -0.0039
7 | Cc1cc2ncnn2cc1Nc1ncc2c(n1)n(C1CCOCC1)c(=O)n2C [AZD7648] + CN(C)CCCOc1ccc(-c2ccc3ncc4c(c3c2)n(C2CCOCC2)c(=O)n4C)cn1 [AZD0156] (first compound max 10 µM, 7x7, partner max 1 µM) | 0.28 | 0.249 | 0.199 | 0.193 | 0.586 | 0.371 | 0.444 | 0.484 | 0.29 | 0.482 | 0.218 | 0.194 | -0.0132 | 0.0266 | 0.0055 | 0.003 | 0.0091 | 0.0037 | -0.0039 | -0.0184

From the supplement of paper PMC11061612
